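Grown in 96-well plates, cells were treated for 48 hours with each compound at five concentrations. Insufficient inhibition: endpoint recorded as highest concentration tested. GI50 is the concentration that inhibits growth by half.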 Active and inactive are the calls of the source. Cut-off read from the data, not from the text of the source: active = GI50 up to about 1.1 µM and inactive = higher.
What was measured:
Experiment in all cases: NCI anticancer screen, dose series, 48 h
[1] = test system: MOLT-4
[2] = test system: IGROV-1
[3] = test system: DU-145
[4] = test system: M14
[5] = test system: SNB-75
[6] = test system: NCI-H226
[7] = test system: OVCAR-3
[8] = test system: UACC-62
[9] = test system: MDA-N
[10] = test system: SF-539
[11] = test system: NCI-H23
[12] = test system: UACC-257
[13] = test system: HCT-116
[14] = test system: SW-620
[15] = test system: 786-0
[16] = test system: MDA-MB-231
[17] = test system: NCI-H460
[18] = test system: EKVX
[19] = test system: OVCAR-5
[20] = test system: T47D
[21] = test system: SF-295
[22] = test system: SNB-19
[23] = test system: RXF 393
[24] = test system: MDA-MB-435
[25] = test system: TK-10
[26] = test system: KM12
[27] = test system: SK-MEL-2
[28] = test system: NCI/ADR-RES
[29] = test system: SK-MEL-28
[30] = test system: A498
[31] = test system: SN12C
[32] = test system: LOX IMVI
[33] = test system: ACHN
[34] = test system: HT-29
[35] = test system: OVCAR-8
[36] = test system: HOP-92
[37] = test system: BT-549
[38] = test system: A549
[39] = test system: UO-31
[40] = test system: OVCAR-4
[41] = test system: HCC 2998
[42] = test system: U-251
[43] = test system: SF-268
[44] = test system: HL-60
[45] = test system: HOP-62
[46] = test system: HCT-15
[47] = test system: SK-OV-3
[48] = test system: CAKI-1
[49] = test system: SK-MEL-5
[50] = test system: COLO 205
[51] = test system: MCF7
[52] = test system: SR
[53] = test system: RPMI-8226
[54] = test system: Malme-3M
[55] = test system: K562
[56] = test system: CCRF-CEM
[57] = test system: NCI-H522
[58] = test system: PC-3
[59] = test system: Hs-578T

In the case of CC1=CC(=O)/C(=C/NC(=S)Nc2ccc(S(N)(=O)=O)cc2)C(=O)O1, the GI50 [1] was > 100 µM (inactive), the GI50 [2] was > 100 µM (inactive) and the GI50 [3] was > 100 µM (inactive). For the same molecule, the GI50 [4] was > 100 µM (inactive), the GI50 [5] was > 100 µM (inactive) and the GI50 [6] was > 100 µM (inactive). For the same molecule, the GI50 [7] was > 100 µM (inactive), the GI50 [8] was > 100 µM (inactive) and the GI50 [9] was > 100 µM (inactive). For the same molecule, the GI50 [10] was > 100 µM (inactive), the GI50 [11] was > 100 µM (inactive) and the GI50 [12] was > 100 µM (inactive). For the same molecule, the GI50 [13] was > 100 µM (inactive), the GI50 [14] was > 100 µM (inactive) and the GI50 [15] was > 100 µM (inactive). The GI50 [16] was > 100 µM (inactive), the GI50 [17] was > 100 µM (inactive) and the GI50 [18] was > 100 µM (inactive). The GI50 [19] was > 100 µM (inactive), the GI50 [20] was > 100 µM (inactive) and the GI50 [21] was > 100 µM (inactive). The GI50 [22] was > 100 µM (inactive), the GI50 [23] was 83.6 µM (inactive) and the GI50 [24] was > 100 µM (inactive). For the same molecule, the GI50 [25] was > 100 µM (inactive), the GI50 [26] was > 100 µM (inactive) and the GI50 [27] was > 100 µM (inactive). For the same molecule, the GI50 [28] was > 100 µM (inactive), the GI50 [29] was > 100 µM (inactive) and the GI50 [30] was > 100 µM (inactive). For the same molecule, the GI50 [31] was > 100 µM (inactive), the GI50 [32] was > 100 µM (inactive) and the GI50 [33] was > 100 µM (inactive). For the same molecule, the GI50 [34] was > 100 µM (inactive), the GI50 [35] was > 100 µM (inactive) and the GI50 [36] was > 100 µM (inactive). For the same molecule, the GI50 [37] was > 100 µM (inactive), the GI50 [38] was > 100 µM (inactive) and the GI50 [39] was > 100 µM (inactive). The GI50 [40] was > 100 µM (inactive), the GI50 [41] was > 100 µM (inactive) and the GI50 [42] was > 100 µM (inactive). For the same molecule, the GI50 [43] was > 100 µM (inactive), the GI50 [44] was > 100 µM (inactive) and the GI50 [45] was > 100 µM (inactive). For the same molecule, the GI50 [46] was greater than 100 µM, the GI50 [47] was > 100 µM (inactive) and the GI50 [48] was > 100 µM (inactive). For the same molecule, the GI50 [49] was > 100 µM (inactive), the GI50 [50] was > 100 µM (inactive) and the GI50 [51] was > 100 µM (inactive).

In the case of N#CC1C(=O)Nc2sc(C(=O)c3ccc(Br)cc3)c(N)c2C12CCCCC2 (stereo not given), the GI50 [1] was 18.5 µM (inactive), the GI50 [52] was 7.96 µM (inactive) and the GI50 [2] was 20.2 µM (inactive). For the same molecule, the GI50 [3] was 23.8 µM (inactive), the GI50 [4] was 13.3 µM (inactive) and the GI50 [5] was 33.1 µM (inactive). For the same molecule, the GI50 [6] was 7.8 µM (inactive), the GI50 [7] was 9.66 µM (inactive) and the GI50 [8] was 18.3 µM (inactive). For the same molecule, the GI50 [9] was 17 µM (inactive), the GI50 [53] was 19.9 µM (inactive) and the GI50 [10] was 17.2 µM (inactive). For the same molecule, the GI50 [11] was 25 µM (inactive), the GI50 [12] was 23.6 µM (inactive) and the GI50 [13] was 15.8 µM (inactive). For the same molecule, the GI50 [14] was 16.6 µM (inactive), the GI50 [15] was 31.4 µM (inactive) and the GI50 [16] was 23 µM (inactive). For the same molecule, the GI50 [17] was 28.2 µM (inactive), the GI50 [18] was 17.7 µM (inactive) and the GI50 [19] was 40.5 µM (inactive). For the same molecule, the GI50 [20] was 12.3 µM (inactive), the GI50 [21] was 30.5 µM (inactive) and the GI50 [22] was 37.9 µM (inactive). For the same molecule, the GI50 [23] was 7.96 µM (inactive), the GI50 [24] was 18.9 µM (inactive) and the GI50 [25] was 33.2 µM (inactive). For the same molecule, the GI50 [26] was 13.4 µM (inactive), the GI50 [27] was 14.2 µM (inactive) and the GI50 [28] was 24.9 µM (inactive). For the same molecule, the GI50 [29] was 16 µM (inactive), the GI50 [30] was 20.1 µM (inactive) and the GI50 [31] was 27.9 µM (inactive). The GI50 [32] was 24.1 µM (inactive), the GI50 [54] was 26.1 µM (inactive) and the GI50 [33] was 35.6 µM (inactive). The GI50 [34] was 33.4 µM (inactive), the GI50 [55] was 23.2 µM (inactive) and the GI50 [56] was 29 µM (inactive). For the same molecule, the GI50 [35] was 39.8 µM (inactive), the GI50 [37] was 27.9 µM (inactive) and the GI50 [38] was 18.1 µM (inactive). For the same molecule, the GI50 [39] was 16.8 µM (inactive), the GI50 [40] was 18 µM (inactive) and the GI50 [57] was 18.3 µM (inactive). The GI50 [41] was 22.5 µM (inactive), the GI50 [42] was 25.1 µM (inactive) and the GI50 [58] was 10.4 µM (inactive). The GI50 [43] was 22.7 µM (inactive), the GI50 [45] was 38.5 µM (inactive) and the GI50 [46] was 16 µM. The GI50 [47] was 46.3 µM (inactive), the GI50 [48] was 27.9 µM (inactive) and the GI50 [49] was 14.6 µM (inactive). For the same molecule, the GI50 [50] was 13.7 µM (inactive) and the GI50 [51] was 16.5 µM (inactive).

With CC(C)[Si](OC1=C(c2ccccc2)C(NC(=O)/C=C/c2ccc([N+](=O)[O-])cc2)CCC1)(C(C)C)C(C)C (stereo not given) the GI50 [1] was > 100 µM (inactive), the GI50 [52] was > 100 µM (inactive) and the GI50 [2] was > 100 µM (inactive). The GI50 [3] was > 100 µM (inactive), the GI50 [4] was > 100 µM (inactive) and the GI50 [5] was > 100 µM (inactive). The GI50 [6] was > 100 µM (inactive), the GI50 [7] was > 100 µM (inactive) and the GI50 [8] was > 100 µM (inactive). The GI50 [53] was 9.71 µM (inactive), the GI50 [10] was > 100 µM (inactive) and the GI50 [11] was > 100 µM (inactive). For the same molecule, the GI50 [12] was > 100 µM (inactive), the GI50 [13] was > 100 µM (inactive) and the GI50 [14] was > 100 µM (inactive). The GI50 [15] was > 100 µM (inactive), the GI50 [16] was > 100 µM (inactive) and the GI50 [17] was > 100 µM (inactive). For the same molecule, the GI50 [18] was > 100 µM (inactive), the GI50 [19] was > 100 µM (inactive) and the GI50 [20] was > 100 µM (inactive). The GI50 [21] was > 100 µM (inactive), the GI50 [22] was > 100 µM (inactive) and the GI50 [23] was > 100 µM (inactive). The GI50 [24] was > 100 µM (inactive), the GI50 [25] was > 100 µM (inactive) and the GI50 [26] was > 100 µM (inactive). For the same molecule, the GI50 [27] was > 100 µM (inactive), the GI50 [28] was > 100 µM (inactive) and the GI50 [30] was > 100 µM (inactive). The GI50 [32] was > 100 µM (inactive), the GI50 [54] was > 100 µM (inactive) and the GI50 [59] was > 100 µM (inactive). For the same molecule, the GI50 [34] was > 100 µM (inactive), the GI50 [55] was > 100 µM (inactive) and the GI50 [56] was > 100 µM (inactive). The GI50 [35] was > 100 µM (inactive), the GI50 [36] was > 100 µM (inactive) and the GI50 [37] was > 100 µM (inactive). For the same molecule, the GI50 [38] was > 100 µM (inactive), the GI50 [39] was > 100 µM (inactive) and the GI50 [57] was > 100 µM (inactive). The GI50 [41] was > 100 µM (inactive), the GI50 [42] was > 100 µM (inactive) and the GI50 [58] was > 100 µM (inactive). The GI50 [43] was > 100 µM (inactive), the GI50 [44] was > 100 µM (inactive) and the GI50 [45] was > 100 µM (inactive). For the same molecule, the GI50 [46] was greater than 100 µM, the GI50 [47] was > 100 µM (inactive) and the GI50 [49] was > 100 µM (inactive). For the same molecule, the GI50 [50] was > 100 µM (inactive) and the GI50 [51] was > 100 µM (inactive).

With COc1cc(OC)c2[nH]c3c(O)c(-c4c(C)cc5c([nH]c6c(OC)cc(OC)cc65)c4O)c(C)cc3c2c1 the GI50 [2] was 7.18 µM (inactive), the GI50 [3] was 7.87 µM (inactive) and the GI50 [4] was 8.38 µM (inactive). For the same molecule, the GI50 [5] was 7.89 µM (inactive), the GI50 [6] was 9.08 µM (inactive) and the GI50 [7] was 8.87 µM (inactive). For the same molecule, the GI50 [10] was 9.42 µM (inactive), the GI50 [12] was 9.33 µM (inactive) and the GI50 [13] was 8.81 µM (inactive). The GI50 [14] was 9.35 µM (inactive), the GI50 [15] was 8.3 µM (inactive) and the GI50 [16] was 9.23 µM (inactive). For the same molecule, the GI50 [17] was 8.55 µM (inactive), the GI50 [18] was 6.22 µM (inactive) and the GI50 [20] was 8.85 µM (inactive). The GI50 [23] was 9.12 µM (inactive), the GI50 [25] was 10.1 µM (inactive) and the GI50 [26] was 9.4 µM (inactive). For the same molecule, the GI50 [27] was 9.25 µM (inactive), the GI50 [28] was 8.77 µM (inactive) and the GI50 [29] was 9.38 µM (inactive). For the same molecule, the GI50 [32] was 7.89 µM (inactive), the GI50 [33] was 8.77 µM (inactive) and the GI50 [59] was 9.44 µM (inactive). For the same molecule, the GI50 [35] was 8.43 µM (inactive), the GI50 [36] was 8.73 µM (inactive) and the GI50 [37] was 9.02 µM (inactive). For the same molecule, the GI50 [38] was 6.49 µM (inactive), the GI50 [40] was 9.42 µM (inactive) and the GI50 [57] was 9.06 µM (inactive). For the same molecule, the GI50 [41] was 8.51 µM (inactive), the GI50 [42] was 11.7 µM (inactive) and the GI50 [58] was 7.91 µM (inactive). The GI50 [43] was 8.39 µM (inactive) and the GI50 [45] was 10.3 µM (inactive).
